Laboratory results from patent publication US20210393857A1, “SMALL MOLECULE DRUGS AND METHODS TO ACCELERATE OSSEOINTEGRATION” (The Regents of the University of California, priority 2018, published 2021).
Counter-ions that a name gives are not always drawn. Marks after values point to notes of the source that are not given here.

How the values were obtained:
[1] = test system: Npas2-LacZ expression of mouse BMSC; test: High throughput screening of LOPAC 1280 compounds for Npas2-LacZ expression (Beta-Glo β-galactosidase assay); type: cell-based; conditions: compound 1 μM, 48 hours, BMSC from Npas2−/− mice carrying LacZ reporter
Method: Femur BMSC harvested from Npas2−/− mice were previously characterized for LacZ expression, which was used in this study for high throughput, unbiased screening of Library of Pharmacologically Active Compounds (LOPAC®^1280). (Hassan, N., et al., (2017) PLoS One 12, e0183359). Using 384-well plates, each well was filled with 25 μl non-phenol red DMEM containing 10% FBS and 1% PS, and added 50 nL of LOPAC®^1280 compound (final concentration: 1 μM) using 500 nL pin tool (Biomek FX, Beckman Coulter, Indianapolis, Ind.). To each well, BMSC (Npas2-LacZ) were placed as 1500 cells/25 μl suspension and incubated at room temperature for 1 hour, followed by incubation at 37° C. and 5% CO2 for 48 hours. To measure Npas2-LacZ expression, β-galactosidase activity was measured using a commercially available assay (Beta-Glo Assay System, Promega, Summerville, Calif.).
The Npas2-LacZ expression data were uploaded on an online data analysis tool (CDD Vault, Collaborative Drug Discovery, Inc, Burlingame, Calif.), on which data were normalized and Z-factor was calculated. For this study, hit compounds were selected as Z-score >2.5 or <−2.5.

[2] = test system: implant osseointegration in mouse femur; test: Implant push-out test of Ti implants placed in mouse femur; type: in vivo; conditions: 75 mg/Kg daily IP for 2 weeks, machined or B-DAE-DCD surface implants, vs vehicle 0.9% NaCl
Text: Male 10˜15-wk-old C57Bl/6J mice underwent surgical placement of Ti implants. After anesthesia with isoflurane inhalation, the distal femur was accessed via medial parapatellar arthrotomy with lateral displacement of the quadriceps-patellar complex. After locating the femoral intercondylar notch, the femoral intramedullary canal was manually reamed with a 25-gauge needle for entry into the canal and further reamed with a 23-gauge needle. A Ti implant was inserted in a retrograde fashion into each femur of a mouse. The Ti implant was clipped at 4 mm and further inserted 4 mm using a periodontal probe. The quadriceps-patellar complex was reduced to its anatomic position, and the surgical site was closed using Vicryl 5-0 sutures. Carprofen (5.0 mg/kg) (Rimadyl, Zoetis US, Parsippany, N.J.) was administered subcutaneously at the time of surgery and every 24 hours for 2 days after surgery.
Mice were euthanized and femur bones were harvested at the predetermined healing time. […] The mechanical withholding strength was measured by pushing the implant out from the femur bone marrow using a custom-made stainless-steel pushing rod mounted on a 1000-N load cell (Instron, Canton, Mass.). The axial load on the implant was applied at a cross-head speed of 1 mm/min, and displacement of the implant and the load were recorded. […]

I1 imidazoline receptor = conditions: comparison within marsanidine, 7-Me-, 7-Cl-, 7-F-marsanidine; cited from earlier work
α2-adrenoreceptors = conditions: comparison within marsanidine, 7-Me-, 7-Cl-, 7-F-marsanidine; cited from earlier work
[3] = test system: adenosine A1 and A2 receptors; conditions: selectivity A1 over A2; cited from earlier work

Row | Structure (SMILES) | % Activity (activity against negative controls in LOPAC 1280 screening) [1] | affinity for the I1 imidazoline receptor (rank among marsanidine analogs) (I1 imidazoline receptor) | affinity for α2-adrenoreceptors (rank among marsanidine analogs) (α2-adrenoreceptors) | other results
1 | C[C@](N)(Cc1ccc(O)c(O)c1)C(=O)O [Methyldopa (L, −), L-α-Methyl-3,4-dihydroxyphenylalanine] | 18.1% |  |  | implant push-out value [2]: greater push-out value than vehicle treated control mice
2 | O=c1ccc2c(OCCCCc3ccccc3)c3ccoc3cc2o1 [Psora-4, 5-(4-phenylbutoxy)psoralen] | 35.3% |  |  | 
3 | CC[C@@H](CO)NC(=O)[C@@H]1C=C2c3cccc4c3c(cn4C)C[C@H]2N(C)C1 [Methysergide maleate, 1-methyl-D-lysergic acid butanolamide] | 28.6% |  |  | 
4 | Fc1cccc2cnn(N=C3NCCN3)c12 [7-F-marsanidine] |  | higher affinity for the I1 imidazoline receptor than 7-Cl-marsanidine | comparable affinity for α2-adrenoreceptors | 
5 | Clc1cccc2cnn(N=C3NCCN3)c12 [7-Cl-marsanidine] |  | lower affinity for the I1 imidazoline receptor | higher affinity for α2-adrenoreceptors | 
6 | c1ccc2c(c1)cnn2N=C1NCCN1 [marsanidine] |  | lowest affinity for the I1 imidazoline receptor | highest affinity for α2-adrenoreceptors | 
7 | CCCn1c(=O)c2[nH]c(-c3ccccc3)nc2n(CCC)c1=O [1,3-dipropyl-8-phenylxanthine] |  |  |  | fold more potent at A1 receptors than at A2 receptors [3]: about 23 fold
8 | Cc1nccc2c1[nH]c1ccccc12 [Harmane (MS-1500866), 1-Methyl-9H-pyrido[3,4-b]indole] | −15.6** % |  |  | 
9 | Cn1c(=O)c2[nH]c(-c3ccc(S(=O)(=O)O)cc3)nc2n(C)c1=O [8-(p-Sulfophenyl)-theophylline, 8-(p-sulfophenyl) theophylline] | 104.0% |  |  | 
10 | Cc1cccc2cnn(N=C3NCCN3)c12 [7-Me-marsanidine] |  | highest affinity for the I1 imidazoline receptor | low affinity for α2-adrenoreceptors | 
11 | O=C1CCc2cc(OCCCCc3nnnn3C3CCCCC3)ccc2N1 [Cilostazol (MS-1505230), 6-[4-(1-cyclohexyl-1H-tetrazol-5-yl)-butoxy]-3,4-dihydro-2(1H)-quinolinone] | 26.2% |  |  | 
12 | CCCn1c(=O)c2[nH]c(-c3ccc(Cl)cc3N)nc2n(CCC)c1=O [8-(2-amino-4-chlorophenyl)-1,3-dipropylxanthine] |  |  |  | fold more potent at A1 receptors than at A2 receptors [3]: ~400 fold
